Laboratory results as given in PubChem BioAssay (NCI).
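Interpolation was linear, between the two tested concentrations surrounding the appropriate level; five concentrations were tested over 48 hours in 96-well plates. TGI is the concentration that stops growth completely.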

How the values were obtained:
Assay in all cases: DTP human tumour cell line panel, 48 h
HCC-2998 colon = system: HCC-2998 colon
NCI/ADR-RES ovarian = system: NCI/ADR-RES ovarian
SW-620 colon = system: SW-620 colon
BT-549 breast = system: BT-549 breast
HOP-92 NSCLC = system: HOP-92 NSCLC
M14 melanoma = system: M14 melanoma
MCF7 breast = system: MCF7 breast
K-562 leukemia = system: K-562 leukemia
RXF 393 renal = system: RXF 393 renal
NCI-H522 lung = system: NCI-H522 lung
SK-MEL-2 melanoma = system: SK-MEL-2 melanoma
U251 CNS = system: U251 CNS
SF-268 CNS = system: SF-268 CNS
MDA-MB-231 breast = system: MDA-MB-231 breast
CCRF-CEM leukemia = system: CCRF-CEM leukemia
SK-MEL-5 melanoma = system: SK-MEL-5 melanoma
HCT-15 colon = system: HCT-15 colon
A549 NSCLC = system: A549 NSCLC
MDA-N = system: MDA-N
UO-31 renal = system: UO-31 renal
ACHN renal = system: ACHN renal
UACC-62 melanoma = system: UACC-62 melanoma
NCI-H23 lung = system: NCI-H23 lung
HT29 colon = system: HT29 colon
OVCAR-4 ovarian = system: OVCAR-4 ovarian
DU-145 prostate = system: DU-145 prostate
SK-MEL-28 melanoma = system: SK-MEL-28 melanoma
CAKI-1 renal = system: CAKI-1 renal
MALME-3M melanoma = system: MALME-3M melanoma
NCI-H460 lung = system: NCI-H460 lung
TK-10 renal = system: TK-10 renal
SF-295 CNS = system: SF-295 CNS
786-0 renal = system: 786-0 renal
NCI-H226 lung = system: NCI-H226 lung
RPMI-8226 leukemia = system: RPMI-8226 leukemia
HCT-116 colon = system: HCT-116 colon
OVCAR-8 ovarian = system: OVCAR-8 ovarian
OVCAR-5 ovarian = system: OVCAR-5 ovarian
SF-539 CNS = system: SF-539 CNS
COLO 205 colon = system: COLO 205 colon
EKVX NSCLC = system: EKVX NSCLC
UACC-257 melanoma = system: UACC-257 melanoma
A498 renal = system: A498 renal
HS 578T breast = system: HS 578T breast
LOX IMVI melanoma = system: LOX IMVI melanoma
HL-60(TB) leukemia = system: HL-60(TB) leukemia
SNB-19 CNS = system: SNB-19 CNS
SNB-75 CNS = system: SNB-75 CNS
T-47D breast = system: T-47D breast
IGROV1 ovarian = system: IGROV1 ovarian
PC-3 prostate = system: PC-3 prostate
MOLT-4 leukemia = system: MOLT-4 leukemia
KM12 colon = system: KM12 colon
HOP-62 NSCLC = system: HOP-62 NSCLC
MDA-MB-435 = system: MDA-MB-435
SN12C renal = system: SN12C renal
OVCAR-3 ovarian = system: OVCAR-3 ovarian
SK-OV-3 ovarian = system: SK-OV-3 ovarian

With NCCNCCCCCCNC(=O)c1cccc2cc3ccccc3nc12 the TGI (HCC-2998 colon) was 6.79 µM, the TGI (NCI/ADR-RES ovarian) was 38.4 µM and the TGI (SW-620 colon) was 4.78 µM. For the same compound, the TGI (BT-549 breast) was 25.2 µM, the TGI (HOP-92 NSCLC) was 9.28 µM and the TGI (M14 melanoma) was 3.6 µM. It also gave a TGI (MCF7 breast) of 5.39 µM, a TGI (K-562 leukemia) of 6.77 µM and a TGI (RXF 393 renal) of 9.68 µM. It also gave a TGI (NCI-H522 lung) of 4.52 µM, a TGI (SK-MEL-2 melanoma) of 10.2 µM and a TGI (U251 CNS) of 4.15 µM. It also gave a TGI (SF-268 CNS) of 9.93 µM, a TGI (MDA-MB-231 breast) of 7.13 µM and a TGI (CCRF-CEM leukemia) of 7.26 µM. For the same compound, the TGI (SK-MEL-5 melanoma) was 13.4 µM, the TGI (HCT-15 colon) was 25.5 µM and the TGI (A549 NSCLC) was 5.63 µM. For the same compound, the TGI (MDA-N) was 7.13 µM, the TGI (UO-31 renal) was 17.2 µM and the TGI (ACHN renal) was 5.98 µM. It also gave a TGI (UACC-62 melanoma) of 4.64 µM, a TGI (NCI-H23 lung) of 6.81 µM and a TGI (HT29 colon) of 3.77 µM. For the same compound, the TGI (OVCAR-4 ovarian) was 4.7 µM, the TGI (DU-145 prostate) was 2.92 µM and the TGI (SK-MEL-28 melanoma) was 12.3 µM. It also gave a TGI (CAKI-1 renal) of 18.5 µM, a TGI (MALME-3M melanoma) of 7.92 µM and a TGI (NCI-H460 lung) of 2.98 µM. The TGI (TK-10 renal) was 20.8 µM, the TGI (SF-295 CNS) was 10.6 µM and the TGI (786-0 renal) was 2.88 µM. The TGI (NCI-H226 lung) was 5.02 µM, the TGI (RPMI-8226 leukemia) was 6.82 µM and the TGI (HCT-116 colon) was 6.33 µM. For the same compound, the TGI (OVCAR-8 ovarian) was 5.27 µM, the TGI (OVCAR-5 ovarian) was 14 µM and the TGI (SF-539 CNS) was 3.88 µM. It also gave a TGI (COLO 205 colon) of 13.2 µM, a TGI (EKVX NSCLC) of 20.9 µM and a TGI (UACC-257 melanoma) of 15.2 µM. It also gave a TGI (A498 renal) of 9.49 µM, a TGI (HS 578T breast) of 6 µM and a TGI (LOX IMVI melanoma) of 2.96 µM. It also gave a TGI (HL-60(TB) leukemia) of 3.51 µM, a TGI (SNB-19 CNS) of 9.58 µM and a TGI (SNB-75 CNS) of 11.8 µM. It also gave a TGI (T-47D breast) of 21.5 µM, a TGI (IGROV1 ovarian) of 17.2 µM and a TGI (PC-3 prostate) of 8.79 µM. It also gave a TGI (MOLT-4 leukemia) of 4.47 µM, a TGI (KM12 colon) of 4.93 µM and a TGI (HOP-62 NSCLC) of 4.68 µM. It also gave a TGI (MDA-MB-435) of 11.9 µM, a TGI (SN12C renal) of 7.8 µM and a TGI (OVCAR-3 ovarian) of 7.16 µM.

COc1c(OC)c(O)c2c(=O)c(OC)c(-c3ccc4c(c3)OCO4)oc2c1O was tested, and the TGI (HCC-2998 colon) was > 100 µM, the TGI (NCI/ADR-RES ovarian) was > 100 µM and the TGI (SW-620 colon) was > 100 µM. For the same compound, the TGI (BT-549 breast) was > 100 µM, the TGI (HOP-92 NSCLC) was > 100 µM and the TGI (M14 melanoma) was > 100 µM. The TGI (MCF7 breast) was > 100 µM, the TGI (K-562 leukemia) was > 100 µM and the TGI (RXF 393 renal) was > 100 µM. For the same compound, the TGI (NCI-H522 lung) was > 100 µM, the TGI (SK-MEL-2 melanoma) was > 100 µM and the TGI (U251 CNS) was > 100 µM. The TGI (SF-268 CNS) was > 100 µM, the TGI (MDA-MB-231 breast) was > 100 µM and the TGI (CCRF-CEM leukemia) was > 100 µM. The TGI (SK-MEL-5 melanoma) was > 100 µM, the TGI (HCT-15 colon) was > 100 µM and the TGI (A549 NSCLC) was > 100 µM. For the same compound, the TGI (MDA-N) was > 100 µM, the TGI (UO-31 renal) was > 100 µM and the TGI (SK-OV-3 ovarian) was > 100 µM. For the same compound, the TGI (ACHN renal) was > 100 µM, the TGI (UACC-62 melanoma) was > 100 µM and the TGI (NCI-H23 lung) was > 100 µM. The TGI (HT29 colon) was > 100 µM, the TGI (OVCAR-4 ovarian) was > 100 µM and the TGI (DU-145 prostate) was > 100 µM. For the same compound, the TGI (SK-MEL-28 melanoma) was > 100 µM, the TGI (CAKI-1 renal) was > 100 µM and the TGI (MALME-3M melanoma) was > 100 µM. The TGI (NCI-H460 lung) was > 100 µM, the TGI (TK-10 renal) was > 100 µM and the TGI (SF-295 CNS) was > 100 µM. For the same compound, the TGI (786-0 renal) was > 100 µM, the TGI (NCI-H226 lung) was > 100 µM and the TGI (HCT-116 colon) was > 100 µM. For the same compound, the TGI (OVCAR-8 ovarian) was > 100 µM, the TGI (OVCAR-5 ovarian) was > 100 µM and the TGI (SF-539 CNS) was > 100 µM. The TGI (COLO 205 colon) was > 100 µM, the TGI (EKVX NSCLC) was > 100 µM and the TGI (UACC-257 melanoma) was > 100 µM. For the same compound, the TGI (A498 renal) was > 100 µM, the TGI (HS 578T breast) was > 100 µM and the TGI (LOX IMVI melanoma) was > 100 µM. For the same compound, the TGI (HL-60(TB) leukemia) was > 100 µM, the TGI (SNB-19 CNS) was > 100 µM and the TGI (SNB-75 CNS) was > 100 µM. The TGI (T-47D breast) was > 100 µM, the TGI (IGROV1 ovarian) was > 100 µM and the TGI (PC-3 prostate) was > 100 µM. The TGI (MOLT-4 leukemia) was > 100 µM, the TGI (KM12 colon) was > 100 µM and the TGI (HOP-62 NSCLC) was > 100 µM. For the same compound, the TGI (MDA-MB-435) was > 100 µM, the TGI (SN12C renal) was > 100 µM and the TGI (OVCAR-3 ovarian) was > 100 µM.
